Results: ChEMBL document CHEMBL1201862, “PubChem BioAssay data set” (2004)
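Each compound was tested at five concentrations against cells in 96-well plates for 48 hours. GI50 marks 50% less growth.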 The source made the active and inactive calls. No stated cut-off is given here; in the data, active = GI50 up to about 1.1 µM and inactive = higher.

Assays:
Test in all cases: NCI anticancer screen, dose series, 48 h
786-0 = test system: 786-0
A549 = test system: A549
ACHN = test system: ACHN
CCRF-CEM = test system: CCRF-CEM
COLO 205 = test system: COLO 205
DLD-1 = test system: DLD-1
DMS-114 = test system: DMS-114
EKVX = test system: EKVX
HCC 2998 = test system: HCC 2998
HCT-116 = test system: HCT-116
HL-60 = test system: HL-60
HOP-18 = test system: HOP-18
HOP-62 = test system: HOP-62
HOP-92 = test system: HOP-92
HT-29 = test system: HT-29
IGROV-1 = test system: IGROV-1
K562 = test system: K562
KM-20L2 = test system: KM-20L2
KM12 = test system: KM12
LOX IMVI = test system: LOX IMVI
LXFL 529 = test system: LXFL 529
M14 = test system: M14
M19-MEL = test system: M19-MEL
MOLT-4 = test system: MOLT-4
Malme-3M = test system: Malme-3M
NCI-H226 = test system: NCI-H226
NCI-H23 = test system: NCI-H23
NCI-H522 = test system: NCI-H522
OVCAR-3 = test system: OVCAR-3
OVCAR-4 = test system: OVCAR-4
OVCAR-5 = test system: OVCAR-5
OVCAR-8 = test system: OVCAR-8
RPMI-8226 = test system: RPMI-8226
RXF 393 = test system: RXF 393
SF-268 = test system: SF-268
SF-295 = test system: SF-295
SK-MEL-28 = test system: SK-MEL-28
SK-MEL-5 = test system: SK-MEL-5
SK-OV-3 = test system: SK-OV-3
SN12C = test system: SN12C
SNB-19 = test system: SNB-19
SNB-75 = test system: SNB-75
SNB-78 = test system: SNB-78
SR = test system: SR
SW-620 = test system: SW-620
TK-10 = test system: TK-10
UACC-257 = test system: UACC-257
UACC-62 = test system: UACC-62
UO-31 = test system: UO-31
CAKI-1 = test system: CAKI-1
DMS-273 = test system: DMS-273
HCT-15 = test system: HCT-15
NCI-H460 = test system: NCI-H460
SF-539 = test system: SF-539
SK-MEL-2 = test system: SK-MEL-2
U-251 = test system: U-251

Measured: GI50

COc1ccc(-c2cc(O)c3cc(OC)ccc3n2)cc1
inactive: 786-0 > 100 µM | A549 > 100 µM | ACHN > 100 µM | CCRF-CEM > 100 µM | COLO 205 > 100 µM | DLD-1 > 100 µM | DMS-114 > 100 µM | EKVX > 100 µM | HCC 2998 5.74 µM | HCT-116 > 100 µM | HL-60 > 100 µM | HOP-18 > 100 µM | HOP-62 > 100 µM | HOP-92 > 100 µM | HT-29 > 100 µM | IGROV-1 > 100 µM | K562 > 100 µM | KM-20L2 > 100 µM | KM12 > 100 µM | LOX IMVI > 100 µM | LXFL 529 > 100 µM | M14 > 100 µM | M19-MEL > 100 µM | MOLT-4 > 100 µM | Malme-3M > 100 µM | NCI-H226 > 100 µM | NCI-H23 > 100 µM | NCI-H522 > 100 µM | OVCAR-3 > 100 µM | OVCAR-4 > 100 µM | OVCAR-5 > 100 µM | OVCAR-8 > 100 µM | RPMI-8226 > 100 µM | RXF 393 > 100 µM | SF-268 36.6 µM | SF-295 > 100 µM | SK-MEL-28 > 100 µM | SK-MEL-5 > 100 µM | SK-OV-3 > 100 µM | SN12C > 100 µM | SNB-19 > 100 µM | SNB-75 92.9 µM | SNB-78 > 100 µM | SR > 100 µM | SW-620 > 100 µM | TK-10 > 100 µM | UACC-257 > 100 µM | UACC-62 > 100 µM | UO-31 > 100 µM

O=C(CN(c1ccccc1)c1ccccc1)n1nnc2ccccc21
39.7 µM: HCT-15
inactive: 786-0 39.2 µM | A549 28.6 µM | ACHN 36.5 µM | CAKI-1 53 µM | CCRF-CEM 35 µM | COLO 205 36.9 µM | DLD-1 76.2 µM | DMS-114 29.3 µM | DMS-273 39.9 µM | EKVX 36 µM | HCC 2998 49.8 µM | HCT-116 24.3 µM | HL-60 29.5 µM | HOP-62 > 100 µM | HT-29 44.1 µM | IGROV-1 52.4 µM | K562 37.8 µM | KM-20L2 36.4 µM | LOX IMVI 24.2 µM | LXFL 529 70.6 µM | M14 52.8 µM | M19-MEL 20.6 µM | MOLT-4 28.2 µM | Malme-3M 46.3 µM | NCI-H226 27.5 µM | NCI-H23 45.1 µM | NCI-H460 70.8 µM | NCI-H522 21.4 µM | OVCAR-3 44.6 µM | OVCAR-5 > 100 µM | OVCAR-8 39.3 µM | RPMI-8226 34.8 µM | RXF 393 26.1 µM | SF-268 28.4 µM | SF-295 74.8 µM | SF-539 24.4 µM | SK-MEL-28 37.2 µM | SK-MEL-2 30.6 µM | SK-MEL-5 20.7 µM | SK-OV-3 > 100 µM | SN12C 53 µM | SNB-19 24.5 µM | SNB-75 27 µM | SNB-78 47.4 µM | SR 24.8 µM | SW-620 30 µM | TK-10 > 100 µM | U-251 26.1 µM | UACC-257 41.4 µM | UACC-62 41.3 µM | UO-31 14.3 µM
